Measured values as given in publication PMC9598656, “In Vitro Activity of Robenidine Analogues NCL259 and NCL265 against Gram-Negative Pathogens” (Antibiotics, 2022).

Assays:
K. pneumoniae ATCC 4352 [1] = test: MIC, broth micro-dilution; format: cell-based, Klebsiella pneumoniae
Experimental: (§1) A variety of Gram-negative reference strains (E. coli ATCC 25922, E. coli ATCC 10763, P. aeruginosa PAO1, P. aeruginosa ATCC 27853, A. baumannii ATCC 12457, A. baumannii ATCC 19606, K. pneumoniae ATCC 4352 and K. pneumoniae ATCC 33495) were used for initial screening and combination testing with PMB. The organisms were speciated using biochemical testing and MALDI-TOF mass spectrometry (Bruker, Preston, VIC, Australia). Activity testing of NCL259 and NCL265 was also carried out on 51 extraintestinal clinical E. coli isolates from companion animals, and 83 porcine and bovine enterotoxigenic E. coli (ETEC) isolates from the Australian Centre for Antimicrobial Resistance Ecology collection. E. coli wild-type (BW 25113) and its mutant BW 25113∆AcrB, in which the inner membrane component AcrB of the tripartite multidrug efflux system AcrA/AcrB/TolC has been deleted, were obtained from the bacterial collection held at Health and Biomedical Innovation, Clinical and Health Sciences, The University of South Australia. All isolates were cultured on sheep blood agar (SBA) plates at 37 °C for 18 h before being subcultured into Luria Bertaini (LB) (Oxoid, Scoresby, VIC, Australia) broth and grown to A600nm = 0.5 (equivalent to approx. 1.5 × 10^8 colony-forming units (CFU)/mL).
(§2) MICs for NCL259 and NCL265 (serial two-fold dilutions commencing at 256 µg/mL) were determined (in duplicate) in round bottom 96–well microtitre trays (Sarstedt 82.1582.001), using the broth micro-dilution method recommended by the Clinical and Laboratory Standards Institute (CLSI). We have shown previously that robenidine can chelate calcium ions from cation-adjusted Mueller-Hinton broth, which causes the loss of activity of robenidine. Therefore, LB broth was used in this study. Additionally, considering the low solubility of robenidine and its analogues in aqueous solutions, two-fold serial dilutions of stock solutions of these compounds were prepared in 100% DMSO [21]. The MIC for ampicillin against each isolate was determined for each test to serve as an internal quality control. The MICs of isolates were determined by visual reading and using an EnSpire Multimode Plate Reader 2300 at A600nm.

K. pneumoniae ATCC 33495 [2] = test: MIC, broth micro-dilution; format: cell-based, Klebsiella pneumoniae; conditions: K. pneumoniae ATCC 33495
Experimental: as §1, §2

P. aeruginosa PAO1 [3] = test: MIC, broth micro-dilution; format: cell-based, Pseudomonas aeruginosa
Experimental: as §1, §2

P. aeruginosa ATCC 27853 [4] = test: MIC, broth micro-dilution; format: cell-based, Pseudomonas aeruginosa
Experimental: as §1, §2

E. coli ATCC 25922 [5] = test: Checkerboard assay with PMB; format: cell-based, Escherichia coli
Experimental: (§3) MICs of NCL259 or NCL265 in the presence of the efflux pump inhibitor, PAβN were determined using a checkerboard assay. […] Briefly, a two-fold serial dilution of each antimicrobial solution was prepared in its appropriate solvent (e.g., DMSO for robenidine analogues and Milli-Q water for PAβN), and 1 μL of each dilution was added from wells 12 to 3 (12.8–0.25 μg/mL for robenidine analogues, and 32–2 μg/mL for PAβN). Thereafter, 89 μL of LB broth was added to each well followed by the addition of 10 μL of bacterial suspension (1–5 × 10^6 CFU/mL) to each well. In this manner, the final concentration of DMSO in each well was 1%. The plate was subsequently incubated at 37 °C for 24 h. The resazurin assay was used for assessment of drug susceptibility of NCL259 and NCL265 (Supplementary Table S1–S6). The same method was also used to test the MICs of NCL259 or NCL265 in the presence of PMB against a range of Gram-negative reference strains (E. coli ATCC 25922, E. coli ATCC 10763, P. aeruginosa PAO1, P. aeruginosa ATCC 27853, A. baumannii ATCC 12457, A. baumannii ATCC 19606, K. pneumoniae ATCC 4352 and K. pneumoniae ATCC 33495). Stock solutions were prepared prior to use (25.6–0.25 mg/mL for robenidine analogues; 12.8–0.25 mg/mL for PMB). The interaction of two antibiotics was calculated as the fractional inhibitory concentration index (FICI) using the following formula:(1) FICI=MICA in combination/MICA alone+MICB in combination/MICB alone where A is NCL259 or NCL265 and B is PAβN or PMB. According to FICI calculations, the interaction between two compounds were interpreted as follows: synergistic (FICI ≤ 0.5); additive or partially synergistic (0.5 < FICI ≤ 1); indifferent (1 < FICI ≤ 4); and antagonistic (FICI > 4), as described previously. The dose reduction index (DRI) was used to describe the difference between the effective doses of NCL259 or NCL265 in combination with PMB or PAβN in comparison to their individual doses, using the following formula:(2) DRI=MICA alone/MICA in combination
(§4) Evaluation of DRI is important clinically because it can allow the dose of a potentially toxic drug to be lowered in combination with another compound without reducing the drug’s efficacy. A DRI higher than 1 is viewed as beneficial.

E. coli ATCC 10763 [6] = test: Checkerboard assay with PMB; format: cell-based, Escherichia coli
Experimental: as §3, §4

A. baumannii ATCC 19606 [7] = test: MIC, broth micro-dilution; format: cell-based, Acinetobacter baumannii
Experimental: as §1, §2

A. baumannii ATCC 12457 [8] = test: MIC, broth micro-dilution; format: cell-based, Acinetobacter baumannii
Experimental: as §1, §2

E. coli ATCC 25922 [9] = test: MIC, broth micro-dilution; format: cell-based, Escherichia coli
Experimental: as §1, §2

E. coli ATCC 10763 [10] = test: MIC, broth micro-dilution; format: cell-based, Escherichia coli; conditions: E. coli ATCC 10763
Experimental: as §1, §2

K. pneumoniae ATCC 4352 [11] = test: Checkerboard assay with PMB; format: cell-based, Klebsiella pneumoniae
Experimental: as §3, §4

K. pneumoniae ATCC 33495 [12] = test: Checkerboard assay with PMB; format: cell-based, Klebsiella pneumoniae
Experimental: as §3, §4

P. aeruginosa PAO1 [13] = test: Checkerboard assay with PMB; format: cell-based, Pseudomonas aeruginosa
Experimental: as §3, §4

P. aeruginosa ATCC 27853 [14] = test: Checkerboard assay with PMB; format: cell-based, Pseudomonas aeruginosa
Experimental: as §3, §4

A. baumannii ATCC 19606 [15] = test: Checkerboard assay with PMB; format: cell-based, Acinetobacter baumannii
Experimental: as §3, §4

A. baumannii ATCC 12457 [16] = test: Checkerboard assay with PMB; format: cell-based, Acinetobacter baumannii
Experimental: as §3, §4

Substance: polymyxin B [PMB, reference compound]
- MIC, Single Drug (K. pneumoniae ATCC 4352 [1]): 1 µg/mL
- MIC, Single Drug (K. pneumoniae ATCC 33495 [2]): 1 µg/mL
- MIC, Single Drug (P. aeruginosa PAO1 [3]): 1 µg/mL
- MIC, Single Drug (P. aeruginosa ATCC 27853 [4]): 1 µg/mL
- MIC, Combination (E. coli ATCC 25922 [5]; NCL259 or NCL265 with PMB): 0.25 µg/mL
- Dose Reduction Index (DRI) PMB:NCL259 (E. coli ATCC 25922 [5]; PMB + NCL259): 2
- Dose Reduction Index (DRI) PMB:NCL265 (E. coli ATCC 25922 [5]; PMB + NCL265): 2
- Dose Reduction Index (DRI) PMB:NCL259 (E. coli ATCC 10763 [6]; PMB + NCL259): 2
- Dose Reduction Index (DRI) PMB:NCL265 (E. coli ATCC 10763 [6]; PMB + NCL265): 4
- MIC, Single Drug (A. baumannii ATCC 19606 [7]): 1 µg/mL
- MIC, Single Drug (A. baumannii ATCC 12457 [8]): 1 µg/mL
- MIC, Single Drug (E. coli ATCC 25922 [9]): 0.5 µg/mL
- MIC, Single Drug (E. coli ATCC 10763 [10]): 1 µg/mL
- MIC, Combination (K. pneumoniae ATCC 4352 [11]; NCL259 or NCL265 with PMB): 0.25 µg/mL
- Dose Reduction Index (DRI) PMB:NCL259 (K. pneumoniae ATCC 4352 [11]; PMB + NCL259): 4
- Dose Reduction Index (DRI) PMB:NCL265 (K. pneumoniae ATCC 4352 [11]; PMB + NCL265): 4:4
- Dose Reduction Index (DRI) PMB:NCL259 (K. pneumoniae ATCC 33495 [12]; PMB + NCL259): 2
- Dose Reduction Index (DRI) PMB:NCL265 (K. pneumoniae ATCC 33495 [12]; PMB + NCL265): 4
- MIC, Combination (P. aeruginosa PAO1 [13]; NCL259 or NCL265 with PMB): 0.5 µg/mL
- Dose Reduction Index (DRI) PMB:NCL259 (P. aeruginosa PAO1 [13]; PMB + NCL259): 2
- Dose Reduction Index (DRI) PMB:NCL265 (P. aeruginosa PAO1 [13]; PMB + NCL265): 2
- MIC, Combination (P. aeruginosa ATCC 27853 [14]; NCL259 or NCL265 with PMB): 0.5 µg/mL
- Dose Reduction Index (DRI) PMB:NCL259 (P. aeruginosa ATCC 27853 [14]; PMB + NCL259): 2
- Dose Reduction Index (DRI) PMB:NCL265 (P. aeruginosa ATCC 27853 [14]; PMB + NCL265): 2
- MIC, Combination (A. baumannii ATCC 19606 [15]; NCL259 or NCL265 with PMB): 0.5 µg/mL
- Dose Reduction Index (DRI) PMB:NCL259 (A. baumannii ATCC 19606 [15]; PMB + NCL259): 2
- Dose Reduction Index (DRI) PMB:NCL265 (A. baumannii ATCC 19606 [15]; PMB + NCL265): 2
- MIC, Combination (A. baumannii ATCC 12457 [16]; NCL259 or NCL265 with PMB): 0.5 µg/mL
- Dose Reduction Index (DRI) PMB:NCL259 (A. baumannii ATCC 12457 [16]; PMB + NCL259): 2
- Dose Reduction Index (DRI) PMB:NCL265 (A. baumannii ATCC 12457 [16]; PMB + NCL265): 2
